For assay [1], the system named is MART-127-35 epitope specific human primary CTL. Kind of assay: AICD induction and quantitation in epitope specific primary CTL (tetramer/annexin V FACS). Type of assay: cell-based. Particulars: pre-incubation about 45 min, restimulation with MART-127-35 peptide pulsed T2 cells, kinase inhibitors 25 μM, z-VAD-fmk 100 μM, Fc chimeras 10 μg/ml. The procedure: FIG. 10. Effect of external death receptor blockade and MAP kinase inhibitors on AICD in the epitope specific CTLs upon secondary encounter of the cognate epitope. The CTLs were pre-incubated at optimal concentration for about 45 min. at about 37° C. with pan caspase inhibitor z-VAD-fmk (100 μM); human Fas/Fc chimera, human TNF-RI/Fc chimera, human TRAIL-RI/Fc chimera, human TRAIL-RII/Fc chimera and human IFN-γ RI/Fc chimeric proteins (10 μg/ml); p38 kinase inhibitor SB203580, JNK inhibitor anthra[1,9-cd]pyrazol-6(2H)-one (SP600125), […] inhibitor PD98059 (25 μM). Then the pretreated as well as untreated CTLs were incubated with T2 cells either alone or loaded with peptide. About 4 hours after secondary exposure cells were stained for determining: (A) Number of tetramer^+ cells out of the CD8^+ T cells [Top panel]; number of tetramer^+/Annexin V^+ and tetramer^+/Annexin^− populations [Bottom panel]. […] (B) Effect of the MAP kinase inhibitors on IFN-γ response by the effector cells.
AICD induction and quantitation. AICD in the human primary CTL primed and expanded specifically for melanoma epitope MART-127-35 was induced by re-exposure of the CTLs to MART-127-35 peptide (1 μg/ml) as reported previously. Staurosporine mediated death was induced by exposure of CTL to 1 μM staurosporine for 4 hr. Quantitation of AICD and the effects of various inhibitors on AICD of CTLs, were carried out by annexin-V staining followed by FACS analyses as reported previously.
In test whether or not the epitope specific primary CTLs undergo AICD, the activated CTLs were exposed to peptide [1 μg/ml] loaded T2 cells (Effector: Target=100) at different time points of the cultures. Thereafter, the evidence of apoptosis was determined by flow cytometry with triple color staining (CD8, MART-127-35/HLA-A2 tetramer and annexin V) at different time points (4-18 h). Experiments were carried out in triplicate wells and significance was calculated by One-way analysis of variance (ANOVA) using Sigma Stat statistical software, Chicago, Ill.
To evaluate the effect of various agents in modulating AICD, the CTLs were pre-incubated with various compounds at optimal concentration for 45 min. at 37° C. and then exposed to T2 cells alone or loaded with peptide.

The subject of assay [2] is Bcl family proteins in CTL. Description: Western blot of Bcl family pro- and anti-apoptotic proteins in CTL after secondary stimulation. Type of assay: cell-based, human. The procedure:
(§1) FIG. 12. Effect of antigen specific secondary stimulation on mitochondrial transmembrane membrane potential (Δψm), pro- and anti-apoptotic protein and expression of cell surface molecules. (A) Differential effect on membrane polarization in Mart-1 primary CTLs (top panel) vs. Jurkat T cells (bottom panel). CTLs were incubated with T2 cells either alone or loaded with peptide. After overnight secondary exposure cells were stained with Mart-1 tetramer/CD8 and DiOC6. Histogram represents the fluorescence of DiOC6 in the gated antigen specific tetramer^+ population (top panel). Jurkat T cells were also analyzed for modulation of membrane potential after TCR-driven stimulation (bottom panel). Values represent the mean±SD of fluorescence intensity triplicates from one out of three separate experiment. *p<0.001 (One Way ANOVA). […] (C) Expression of different cell surface receptors for survival or death signal in antigen specific population upon secondary stimulation. Values on left upper corner represent the geometric mean of the fluorescence intensity for that particular marker when stimulated with T2/MAGE-3271-279 while that on right upper corner represent the geometric mean of the fluorescence intensity when stimulated with T2/MART-127-35.
Washed cell pellets were lysed in RIPA buffer and a cytosolic fraction was prepared by spinning the lysate at 15,000 rpm. Proteins (20 μg/well) were separated on 15% SDS-PAGE, transferred onto nitrocellulose filters, probed with appropriate antibodies. Antibodies for Bcl-2, phospho Bcl-2, Bim, BCI-XL, Bax, Actin were purchased from Santa-Cruz Biotechnology, Santa-Cruz, Calif. Anti-Mcl-1 antibody was purchased from BD Pharmingen, Palo Alto, Calif. Blots were developed by HRP-tagged secondary antibody (Santa-Cruz Biotechnology, Santa-Cruz, Calif.) using a chemoluminescence kit (Amersham Biosciences, Buckinghamshire, U. K.).

A further assay concerns Mart-1 primary CTLs. Kind of assay: Mitochondrial transmembrane potential (DiOC6 staining). Particulars: induced by re-stimulation with cognate peptide; data not shown. Type of assay: cell-based, human. As for the experimental part: as §1
In assay [3] the test system is MART-127-35 epitope specific primary CTL. Kind of assay: DNA fragmentation analysis (agarose gel electrophoresis). The class given is cell-based, human. The conditions noted are these: 1 μM staurosporine for 4 hr.
Description: Standard 2% agarose gel-electrophoresis (panel i) and pulse field DNA gel electrophoresis (panel ii) of: CTL in steady state (C) and after restimulation by the cognate peptide (M1).
DNA fragmentation analysis. DNA fragmentation was assessed by measuring single stranded nick generation, using single stranded DNA nick specific antibody (Alexis Biochemicals, CA, USA) with flow-cytometry and immunofluorescence according to published protocols. Antibody-stained cells were counterstained with 0.1 μg/ml DAPI in PBS for 10 min. Agarose gel electrophoresis was used to detect small oligosomal DNA fragmentation and pulse field electrophoresis (Bio-Rad CHEF-DRIII) was used (6 V/cm, 20-60 sec pulse overnight) to detect large-scale DNA fragmentation.
The test system of assay [4] is PARP cleavage in Jurkat cells. Description: PARP cleavage in staurosporine treated Jurkat cells (immunoblot). Type of assay: cell-based, human. The procedure: FIG. 1. […] (A) Effect of the JNK inhibitor SP600125 on AICD in the MART-127-35 epitope specific CTL. Histogram represents FACS analysis of the percent of MART-127-35 epitope specific CTLs that were tetramer positive and annexin negative after restimulation with MAGE-3271-279 control peptide (M3) pulsed T2 cells or MART-127-35 peptide (M1) pulsed T2 cells either alone or re-stimulated after pre-incubation with JNK inhibitor SP600125, p38-kinase inhibitor SB203580, ERK1/2 inhibitor PD98059 or caspase-inhibitor z-VAD-fink. MAGE-3271-279. (B) JNK activation results in phosphorylation of c-Jun during AICD in CTL that is blocked by SP600125. Immunoblots show analyses of CTL extracts probed with anti-phosphor-c-Jun, anti-c-Jun, and anti-actin antibodies. […] (i) Jurkat cells were treated with PMA+ionomycin in the absence or presence of SP600125 and JNK activation (c-Jun phosphorylation) was assessed with anti-phospho-c-Jun antibody. […] (ii) Jurkat cells were treated with Staurosporine for 1 and 4 hrs in the absence (S) or presence of caspase inhibitor, z-VAD-fmk (CI), JNK inhibitor, SP600125 (SP) or ERK1/2 inhibitor PD98059 (PD) and cleavage of PARP was detected by immunoblotting, using actin as a loading control. […] Percent annexin positive cells in all samples were quantified by FACS analysis and shown below the blot […]

Another assay has as its system Jurkat cells. Description: Staurosporine-induced death of Jurkat cells (annexin FACS). Type of assay: cell-based, human. Particulars: annexin positive cells by FACS. As for the experimental part: FIG. 1. […] (A) Effect of the JNK inhibitor SP600125 on AICD in the MART-127-35 epitope specific CTL. Histogram represents FACS analysis of the percent of MART-127-35 epitope specific CTLs that were tetramer positive and annexin negative after restimulation with MAGE-3271-279 control peptide (M3) pulsed T2 cells or MART-127-35 peptide (M1) pulsed T2 cells either alone or re-stimulated after pre-incubation with JNK inhibitor SP600125, p38-kinase inhibitor SB203580, ERK1/2 inhibitor PD98059 or caspase-inhibitor z-VAD-fink. MAGE-3271-279. (B) JNK activation results in phosphorylation of c-Jun during AICD in CTL that is blocked by SP600125. Immunoblots show analyses of CTL extracts probed with anti-phosphor-c-Jun, anti-c-Jun, and anti-actin antibodies. […] (i) Jurkat cells were treated with PMA+ionomycin in the absence or presence of SP600125 and JNK activation (c-Jun phosphorylation) was assessed with anti-phospho-c-Jun antibody. […] (ii) Jurkat cells were treated with Staurosporine for 1 and 4 hrs in the absence (S) or presence of caspase inhibitor, z-VAD-fmk (CI), JNK inhibitor, SP600125 (SP) or ERK1/2 inhibitor PD98059 (PD) and cleavage of PARP was detected by immunoblotting, using actin as a loading control. […] Percent annexin positive cells in all samples were quantified by FACS analysis and shown below the blot

Here are results for 4 molecules from US20070003531A1, “Methods for improving immunotherapy by enhancing survival of antigen-specific cytotoxic T lymphocytes” (University of Connecticut, priority 2005, published 2007).

`COc1cccc(-c2cc(=O)c3ccccc3o2)c1N` [PD98059]: in assay [1], the “protection/rescue of CTL from AICD” value is listed as “could not protect”.
As for `C[S+]([O-])c1ccc(-c2nc(-c3ccncc3)c(-c3ccc(F)cc3)[nH]2)cc1` (centres unmarked) [SB203580], the “protection/rescue of CTL from AICD” value in assay [1] is on record as “could not protect”. In addition, in assay [2], the BCI-XL expression result is “non-selectively up regulated” and the Bcl-2 expression entry is listed as “non-selectively up regulated”. Moreover, the “level of hyper polarization of mitochondrial transmembrane potential” value in the assay with Mart-1 primary CTLs is “decreased”.
On to `CN[C@@H]1C[C@H]2O[C@@](C)([C@@H]1OC)n1c3ccccc3c3c4c(c5c6ccccc6n2c5c31)C(=O)NC4` [staurosporine], for which the “oligosomal DNA fragmentation” value in assay [3] is listed as “clearly evident”. In addition, the PARP cleavage result in assay [4] (Jurkat cells treated with staurosporine (1 μM)) was “cleaved”.
For z-VAD-fmk, the “protection/rescue of CTL from AICD” value in assay [1] was “could not protect”; in assay [1] (listed as z-VAD-fink), “did not prevent”. The “protection from staurosporine-induced death” value with Jurkat cells is recorded as “protected”. In assay [4] (Jurkat cells, z-VAD-fmk 100 μM, staurosporine 1 μM), the “effect on PARP cleavage induced by staurosporine” value was “blocked”.
